Holding throughout (assay): pIC50, kinobeads binding competition
Experiment [1] has as its target CDK2 (UniProt P24941). Summed up: (§1)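 Either living Jurkat cells (60 min at 37 °C, then lysis) or lysates (60 min at 4 °C) were treated with nine compound concentrations from a top of 30 μM, in 1:4 steps for cells and 1:5 steps for lysates. The lysates were from Jurkat cells or a 1:1:1:1 mix of HEK293, K-562, HepG2 and placenta. Kinobeads-bound proteins were digested and quantified by TMT10 LC-MS/MS. pIC50 was calculated by logistic dose-response fitting (R drc package) of fold changes relative to vehicle, in biological duplicates.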

Experiment [2] has as its target EGFR (UniProt P00533). Particulars: cell material: Lysate mix. The method in brief:
as §1

In experiment [3] the target is T1, IRAK4 (UniProt Q9NWZ3).
T1 sequence (whole entry): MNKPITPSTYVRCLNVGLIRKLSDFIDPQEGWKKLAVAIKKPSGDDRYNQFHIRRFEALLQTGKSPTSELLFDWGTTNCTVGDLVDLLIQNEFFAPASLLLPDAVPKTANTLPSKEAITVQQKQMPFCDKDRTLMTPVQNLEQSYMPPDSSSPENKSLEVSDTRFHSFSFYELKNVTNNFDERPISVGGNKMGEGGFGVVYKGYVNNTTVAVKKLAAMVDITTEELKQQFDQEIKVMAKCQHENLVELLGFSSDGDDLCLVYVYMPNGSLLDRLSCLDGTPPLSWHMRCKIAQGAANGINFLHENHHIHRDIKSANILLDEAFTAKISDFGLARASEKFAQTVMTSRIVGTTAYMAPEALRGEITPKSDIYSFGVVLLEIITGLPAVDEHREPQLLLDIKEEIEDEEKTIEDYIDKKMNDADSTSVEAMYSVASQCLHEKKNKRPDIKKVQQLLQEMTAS
Summed up:
as §1

Experiment [4] addresses T2, JAK3 (UniProt P52333).
T2 sequence (whole entry): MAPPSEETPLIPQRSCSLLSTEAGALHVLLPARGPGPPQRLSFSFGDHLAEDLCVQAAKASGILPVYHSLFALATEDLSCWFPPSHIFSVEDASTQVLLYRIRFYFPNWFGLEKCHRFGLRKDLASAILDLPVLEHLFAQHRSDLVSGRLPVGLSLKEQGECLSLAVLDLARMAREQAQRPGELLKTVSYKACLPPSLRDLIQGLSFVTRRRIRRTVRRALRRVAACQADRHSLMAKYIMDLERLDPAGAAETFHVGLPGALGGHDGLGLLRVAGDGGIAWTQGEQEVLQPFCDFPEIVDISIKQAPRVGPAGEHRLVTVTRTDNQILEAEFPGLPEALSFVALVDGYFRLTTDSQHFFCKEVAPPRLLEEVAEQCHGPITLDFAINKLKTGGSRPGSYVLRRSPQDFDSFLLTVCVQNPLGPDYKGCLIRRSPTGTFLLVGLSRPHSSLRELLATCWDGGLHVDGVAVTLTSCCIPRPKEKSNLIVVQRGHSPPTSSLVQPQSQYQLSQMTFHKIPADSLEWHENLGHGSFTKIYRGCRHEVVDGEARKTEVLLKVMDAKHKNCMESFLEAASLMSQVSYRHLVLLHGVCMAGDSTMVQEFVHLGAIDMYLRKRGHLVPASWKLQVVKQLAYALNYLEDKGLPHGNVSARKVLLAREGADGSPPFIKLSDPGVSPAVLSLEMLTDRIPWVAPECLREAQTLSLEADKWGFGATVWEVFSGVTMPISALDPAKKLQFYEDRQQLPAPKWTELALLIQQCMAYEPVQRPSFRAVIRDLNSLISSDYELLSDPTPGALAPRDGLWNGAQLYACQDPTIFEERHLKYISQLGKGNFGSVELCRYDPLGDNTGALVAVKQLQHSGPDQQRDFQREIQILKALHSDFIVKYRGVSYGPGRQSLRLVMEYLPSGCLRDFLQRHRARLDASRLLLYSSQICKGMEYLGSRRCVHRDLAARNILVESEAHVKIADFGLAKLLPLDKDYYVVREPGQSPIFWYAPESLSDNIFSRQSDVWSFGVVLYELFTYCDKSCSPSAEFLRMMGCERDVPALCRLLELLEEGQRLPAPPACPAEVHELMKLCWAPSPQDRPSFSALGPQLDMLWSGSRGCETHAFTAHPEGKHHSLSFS
Summed up: as §1

The target of experiment [5] is NEK7 (UniProt Q8TDX7). The method in brief:
as §1

Experiment [6] deals with T3, UniProt O15111.
T3 sequence (whole entry): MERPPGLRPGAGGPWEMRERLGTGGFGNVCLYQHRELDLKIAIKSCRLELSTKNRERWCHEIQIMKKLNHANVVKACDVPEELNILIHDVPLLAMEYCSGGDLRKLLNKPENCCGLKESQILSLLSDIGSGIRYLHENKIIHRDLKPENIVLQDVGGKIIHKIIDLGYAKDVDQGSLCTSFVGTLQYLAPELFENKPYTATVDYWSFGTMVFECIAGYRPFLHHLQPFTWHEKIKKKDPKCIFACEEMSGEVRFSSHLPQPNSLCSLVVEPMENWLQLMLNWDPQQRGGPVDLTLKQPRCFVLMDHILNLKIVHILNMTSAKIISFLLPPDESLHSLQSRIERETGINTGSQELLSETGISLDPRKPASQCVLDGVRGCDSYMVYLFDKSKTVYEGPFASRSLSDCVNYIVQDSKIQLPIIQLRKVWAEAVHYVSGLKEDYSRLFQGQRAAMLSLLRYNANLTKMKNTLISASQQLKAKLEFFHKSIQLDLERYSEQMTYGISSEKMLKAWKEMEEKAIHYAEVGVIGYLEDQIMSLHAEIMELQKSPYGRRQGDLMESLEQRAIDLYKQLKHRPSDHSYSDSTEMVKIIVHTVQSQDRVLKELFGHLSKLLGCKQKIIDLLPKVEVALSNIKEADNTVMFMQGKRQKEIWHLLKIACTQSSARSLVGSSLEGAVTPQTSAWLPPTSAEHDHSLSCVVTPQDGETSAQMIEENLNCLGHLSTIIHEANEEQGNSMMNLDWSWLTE
Summed up: as §1

Experiment [7] deals with UniProt P17612. Summed up:
as §1

Experiment [8] deals with UniProt Q07912. Summed up:
as §1

Experiment [9] addresses UniProt Q16584. The method in brief:
as §1

Experiment [10] concerns the target UniProt Q16659. The method in brief: as §1
In experiment [11] the target is WEE1 (UniProt P30291). The method in brief: as §1
Chain of WEE1 (P30291 whole entry, looked up): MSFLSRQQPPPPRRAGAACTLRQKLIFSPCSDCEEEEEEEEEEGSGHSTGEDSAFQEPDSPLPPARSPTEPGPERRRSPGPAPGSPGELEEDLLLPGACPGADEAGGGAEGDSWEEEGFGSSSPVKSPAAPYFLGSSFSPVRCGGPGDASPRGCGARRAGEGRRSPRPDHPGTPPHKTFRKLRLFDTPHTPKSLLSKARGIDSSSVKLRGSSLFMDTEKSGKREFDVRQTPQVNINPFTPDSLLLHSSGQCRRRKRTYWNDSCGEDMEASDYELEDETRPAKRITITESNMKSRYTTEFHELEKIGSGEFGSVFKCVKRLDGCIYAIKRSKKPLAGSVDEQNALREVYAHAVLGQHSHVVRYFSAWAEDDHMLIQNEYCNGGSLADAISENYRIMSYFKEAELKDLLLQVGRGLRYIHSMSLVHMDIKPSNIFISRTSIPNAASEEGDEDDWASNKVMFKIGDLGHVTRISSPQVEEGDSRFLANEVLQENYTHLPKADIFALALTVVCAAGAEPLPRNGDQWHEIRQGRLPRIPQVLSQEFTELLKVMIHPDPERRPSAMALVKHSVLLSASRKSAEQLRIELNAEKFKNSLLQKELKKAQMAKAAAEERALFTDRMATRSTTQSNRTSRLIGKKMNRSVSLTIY

Chain of UniProt Q07912 (Q07912 whole entry, looked up): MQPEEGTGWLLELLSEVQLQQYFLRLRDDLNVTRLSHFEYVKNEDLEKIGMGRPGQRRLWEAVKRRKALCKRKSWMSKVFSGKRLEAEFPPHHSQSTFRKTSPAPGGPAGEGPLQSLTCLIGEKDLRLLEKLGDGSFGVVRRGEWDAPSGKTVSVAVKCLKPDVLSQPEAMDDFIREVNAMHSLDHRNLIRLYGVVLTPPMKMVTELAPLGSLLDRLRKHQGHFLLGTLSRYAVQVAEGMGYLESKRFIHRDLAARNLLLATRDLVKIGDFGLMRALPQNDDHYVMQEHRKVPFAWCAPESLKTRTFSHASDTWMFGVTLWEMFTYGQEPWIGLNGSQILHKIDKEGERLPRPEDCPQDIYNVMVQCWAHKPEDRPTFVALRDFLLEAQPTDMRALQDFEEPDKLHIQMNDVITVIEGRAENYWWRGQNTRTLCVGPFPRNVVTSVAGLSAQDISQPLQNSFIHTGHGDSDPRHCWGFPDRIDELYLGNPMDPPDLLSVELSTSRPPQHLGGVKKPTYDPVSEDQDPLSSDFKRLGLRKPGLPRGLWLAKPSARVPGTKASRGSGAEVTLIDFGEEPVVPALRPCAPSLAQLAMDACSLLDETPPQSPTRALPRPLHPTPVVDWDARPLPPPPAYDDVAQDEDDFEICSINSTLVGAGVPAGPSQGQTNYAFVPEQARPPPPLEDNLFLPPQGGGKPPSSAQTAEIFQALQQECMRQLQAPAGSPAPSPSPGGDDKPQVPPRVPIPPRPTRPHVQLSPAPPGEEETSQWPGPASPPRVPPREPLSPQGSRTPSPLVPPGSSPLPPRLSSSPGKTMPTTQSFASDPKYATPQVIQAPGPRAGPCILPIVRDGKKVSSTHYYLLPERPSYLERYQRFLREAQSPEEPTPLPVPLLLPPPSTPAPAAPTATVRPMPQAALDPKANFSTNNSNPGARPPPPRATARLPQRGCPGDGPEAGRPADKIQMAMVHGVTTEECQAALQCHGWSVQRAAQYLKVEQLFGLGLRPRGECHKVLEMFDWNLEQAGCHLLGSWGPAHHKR
Chain of UniProt Q16584 (Q16584 whole entry, looked up): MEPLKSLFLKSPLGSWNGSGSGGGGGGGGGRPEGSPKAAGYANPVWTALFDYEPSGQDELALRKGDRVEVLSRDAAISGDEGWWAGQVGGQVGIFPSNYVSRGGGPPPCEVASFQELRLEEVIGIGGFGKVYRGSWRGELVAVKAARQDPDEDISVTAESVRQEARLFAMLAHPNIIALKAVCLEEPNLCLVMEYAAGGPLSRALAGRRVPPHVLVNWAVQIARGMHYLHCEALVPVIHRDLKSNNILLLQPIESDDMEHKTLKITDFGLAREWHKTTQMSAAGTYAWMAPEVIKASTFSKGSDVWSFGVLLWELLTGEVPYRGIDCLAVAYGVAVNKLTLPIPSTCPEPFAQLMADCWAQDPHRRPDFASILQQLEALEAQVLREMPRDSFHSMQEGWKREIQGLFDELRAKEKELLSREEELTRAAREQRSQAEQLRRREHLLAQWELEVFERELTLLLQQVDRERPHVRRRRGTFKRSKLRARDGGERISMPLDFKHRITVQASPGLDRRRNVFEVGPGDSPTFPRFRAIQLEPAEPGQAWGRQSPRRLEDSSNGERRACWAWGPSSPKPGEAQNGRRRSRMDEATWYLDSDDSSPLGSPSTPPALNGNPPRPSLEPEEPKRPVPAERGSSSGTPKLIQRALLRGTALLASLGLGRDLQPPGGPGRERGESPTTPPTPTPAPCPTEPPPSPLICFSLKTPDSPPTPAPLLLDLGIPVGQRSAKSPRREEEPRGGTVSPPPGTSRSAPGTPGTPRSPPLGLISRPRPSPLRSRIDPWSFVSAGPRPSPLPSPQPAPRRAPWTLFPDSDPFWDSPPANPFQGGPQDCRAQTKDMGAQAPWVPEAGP
Chain of UniProt Q16659 (Q16659 whole entry): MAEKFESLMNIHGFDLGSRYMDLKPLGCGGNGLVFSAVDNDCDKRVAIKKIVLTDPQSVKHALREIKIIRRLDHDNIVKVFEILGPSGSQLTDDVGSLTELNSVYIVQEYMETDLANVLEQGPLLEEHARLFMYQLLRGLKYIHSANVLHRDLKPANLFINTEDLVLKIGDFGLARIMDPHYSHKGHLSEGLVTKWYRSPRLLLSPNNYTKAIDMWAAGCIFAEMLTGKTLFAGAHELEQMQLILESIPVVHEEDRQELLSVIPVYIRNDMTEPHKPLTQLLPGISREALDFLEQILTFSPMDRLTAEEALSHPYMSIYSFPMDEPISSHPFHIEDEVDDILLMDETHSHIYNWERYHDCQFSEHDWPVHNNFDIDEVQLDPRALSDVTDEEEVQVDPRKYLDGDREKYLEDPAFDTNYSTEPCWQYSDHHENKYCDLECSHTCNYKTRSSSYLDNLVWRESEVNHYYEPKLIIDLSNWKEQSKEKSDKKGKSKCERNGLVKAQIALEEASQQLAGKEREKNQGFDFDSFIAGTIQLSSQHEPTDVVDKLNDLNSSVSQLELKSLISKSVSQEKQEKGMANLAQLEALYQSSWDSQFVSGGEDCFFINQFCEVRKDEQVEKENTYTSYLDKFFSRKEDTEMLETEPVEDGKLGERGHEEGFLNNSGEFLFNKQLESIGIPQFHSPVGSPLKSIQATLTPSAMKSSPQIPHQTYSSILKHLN
Chain of NEK7 (Q8TDX7 whole entry, looked up): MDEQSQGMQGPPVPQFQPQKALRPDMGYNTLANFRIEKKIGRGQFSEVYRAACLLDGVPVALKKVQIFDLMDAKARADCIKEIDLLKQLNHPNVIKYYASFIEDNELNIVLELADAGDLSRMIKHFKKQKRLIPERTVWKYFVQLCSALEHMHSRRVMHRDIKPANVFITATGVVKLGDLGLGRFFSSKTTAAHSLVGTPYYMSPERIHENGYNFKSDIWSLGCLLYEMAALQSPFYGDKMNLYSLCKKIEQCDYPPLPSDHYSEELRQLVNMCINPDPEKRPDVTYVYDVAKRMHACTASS
Chain of EGFR (P00533 whole entry): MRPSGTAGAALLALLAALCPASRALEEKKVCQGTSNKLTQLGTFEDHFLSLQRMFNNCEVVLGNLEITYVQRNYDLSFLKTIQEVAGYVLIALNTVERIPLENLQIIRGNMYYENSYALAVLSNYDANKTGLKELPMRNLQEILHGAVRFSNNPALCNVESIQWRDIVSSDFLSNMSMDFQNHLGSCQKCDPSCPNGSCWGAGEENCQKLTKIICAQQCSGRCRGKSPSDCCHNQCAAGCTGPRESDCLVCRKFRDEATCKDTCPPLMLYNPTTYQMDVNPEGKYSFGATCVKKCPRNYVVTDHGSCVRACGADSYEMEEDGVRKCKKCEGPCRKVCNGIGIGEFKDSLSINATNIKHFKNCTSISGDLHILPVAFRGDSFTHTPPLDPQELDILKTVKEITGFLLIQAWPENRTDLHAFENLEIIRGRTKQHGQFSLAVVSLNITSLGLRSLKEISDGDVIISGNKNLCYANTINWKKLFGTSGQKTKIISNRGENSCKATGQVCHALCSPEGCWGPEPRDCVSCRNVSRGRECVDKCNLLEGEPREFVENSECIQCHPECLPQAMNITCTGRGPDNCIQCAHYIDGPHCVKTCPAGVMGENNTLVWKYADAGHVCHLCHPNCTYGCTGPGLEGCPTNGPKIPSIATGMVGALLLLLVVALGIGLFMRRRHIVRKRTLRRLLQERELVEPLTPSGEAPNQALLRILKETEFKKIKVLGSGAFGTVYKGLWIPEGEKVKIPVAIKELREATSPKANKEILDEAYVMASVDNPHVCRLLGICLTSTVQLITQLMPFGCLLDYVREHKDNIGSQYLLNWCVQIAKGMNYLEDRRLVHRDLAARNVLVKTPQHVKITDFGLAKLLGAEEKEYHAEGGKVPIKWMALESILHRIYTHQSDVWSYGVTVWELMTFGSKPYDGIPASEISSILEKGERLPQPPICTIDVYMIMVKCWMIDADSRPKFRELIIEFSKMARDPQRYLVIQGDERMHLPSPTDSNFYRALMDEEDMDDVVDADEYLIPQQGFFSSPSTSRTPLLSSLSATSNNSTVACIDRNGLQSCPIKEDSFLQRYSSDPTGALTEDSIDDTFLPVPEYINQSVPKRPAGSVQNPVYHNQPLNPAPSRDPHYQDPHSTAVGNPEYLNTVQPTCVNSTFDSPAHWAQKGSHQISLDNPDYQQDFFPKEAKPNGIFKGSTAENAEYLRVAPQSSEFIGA

Regarding `Cc1cc(Nc2cc(C(=O)NCCNC(=O)OC3CC/C=C/CCC3)nc(N3CCN(Cc4ccc(S(=O)(=O)F)cc4)CC3)n2)n[nH]1` (stereo not given), the pIC50 (in general, −log10 of the IC50, conventionally taken in molar units) was 4.74 in [1] (cell material: Lysate mix); below 4.52 in experiment [2]; below 4.52 in [3] (cell material: Lysate mix); below 4.52 in experiment [4] (cell material: Lysate mix); below 4.52 in experiment [5] (cell material: Lysate mix); below 4.52 in [6] (cell material: Lysate mix). The pIC50 in experiment [7] (cell material: Lysate mix), in [8] (cell material: Lysate mix), in experiment [9] (cell material: Lysate mix), in experiment [10] (cell material: Lysate mix) and in experiment [11] (cell material: Lysate mix) was below 4.52 each time.
Consider `C#CCNC(=O)c1cc(Nc2cc(C3CC3)[nH]n2)nc(N2CCN(Cc3ccc(S(=O)(=O)F)cc3)CC2)n1`, for which the pIC50 in experiment [1] (cell material: Jurkat cells) was 6.8; in experiment [1] (cell material: Jurkat lysate), 6.16; in [1] (cell material: Lysate mix) it was 6.7; in [2], 5.4; in experiment [3] (cell material: Jurkat cells), 6.03; in experiment [3] (cell material: Jurkat lysate) it was 4.62. Further, the pIC50 in experiment [3] (cell material: Lysate mix) was 5.06; in [4] (cell material: Jurkat cells) it was 5.94; in experiment [4] (cell material: Jurkat lysate) it was 5.42; in experiment [4] (cell material: Lysate mix), 6.08; in experiment [5] (cell material: Jurkat cells), 6.88; in experiment [5] (cell material: Jurkat lysate) it was below 4.52. Moreover, the negative logarithm of the IC50 (pIC50) in [5] (cell material: Lysate mix), in experiment [6] (cell material: Jurkat cells), in [6] (cell material: Jurkat lysate), in experiment [6] (cell material: Lysate mix), in experiment [7] (cell material: Jurkat cells) and in experiment [7] (cell material: Jurkat lysate) was below 4.52 throughout. Also, the pIC50 in experiment [7] (cell material: Lysate mix) was below 4.52; in experiment [8] (cell material: Jurkat cells), 5.16; in [8] (cell material: Jurkat lysate), below 4.52; in [8] (cell material: Lysate mix), below 4.52; in experiment [9] (cell material: Jurkat cells) it was 6.26; in experiment [9] (cell material: Jurkat lysate), 5.22. The pIC50 in [9] (cell material: Lysate mix) was 5.64; in experiment [10] (cell material: Jurkat cells) it was below 4.52; in experiment [10] (cell material: Jurkat lysate), below 4.52; in experiment [10] (cell material: Lysate mix), below 4.52; in [11] (cell material: Jurkat cells), 5.62; in experiment [11] (cell material: Jurkat lysate) it was below 4.52. The pIC50 in experiment [11] (cell material: Lysate mix) was below 4.52.
Consider `CCNC(=O)c1cc(Nc2cc(C3CC3)[nH]n2)nc(N2CCN(Cc3ccc(S(=O)(=O)F)cc3)CC2)n1`, for which the pIC50 in [1] (cell material: Lysate mix) is 6.29; in experiment [2], 5.3; in experiment [3] (cell material: Lysate mix), 5.19; in experiment [4] (cell material: Lysate mix) it was 5.97; in [5] (cell material: Lysate mix), below 4.52; in experiment [6] (cell material: Lysate mix), below 4.52. For the same compound, the pIC50 was below 4.52 in [7] (cell material: Lysate mix); below 4.52 in experiment [8] (cell material: Lysate mix); 5.29 in experiment [9] (cell material: Lysate mix); below 4.52 in experiment [10] (cell material: Lysate mix); below 4.52 in experiment [11] (cell material: Lysate mix).
With `C#CCNC(=O)c1cc(Nc2cc(C)[nH]n2)nc(N2CCN(Cc3ccc(S(=O)(=O)F)cc3)CC2)n1`, the pIC50 in [1] (cell material: Lysate mix) was 6.2; in experiment [2] it was 5.56; in experiment [3] (cell material: Lysate mix), below 4.52; in experiment [4] (cell material: Lysate mix), 5.7; in [5] (cell material: Lysate mix), below 4.52; in experiment [6] (cell material: Lysate mix) it was below 4.52. For the same compound, the pIC50 in [7] (cell material: Lysate mix), in experiment [8] (cell material: Lysate mix), in experiment [9] (cell material: Lysate mix), in [10] (cell material: Lysate mix) and in [11] (cell material: Lysate mix) was below 4.52 throughout.
With `O=C(NCCNC(=O)c1cc(Nc2cc(C3CC3)[nH]n2)nc(N2CCN(Cc3ccc(S(=O)(=O)F)cc3)CC2)n1)OC1CC/C=C/CCC1` (stereo not given), the pIC50 is 6.45 in experiment [1] (cell material: Jurkat cells); 5.06 in [1] (cell material: Jurkat lysate); 5.19 in [1] (cell material: Lysate mix); below 4.52 in [2]; 5.24 in experiment [3] (cell material: Jurkat cells); below 4.52 in experiment [3] (cell material: Jurkat lysate). In addition, the negative-log IC50 (pIC50) is below 4.52 in experiment [3] (cell material: Lysate mix); 5.39 in experiment [4] (cell material: Jurkat cells); below 4.52 in [4] (cell material: Jurkat lysate); below 4.52 in experiment [4] (cell material: Lysate mix); 6.85 in experiment [5] (cell material: Jurkat cells); below 4.52 in experiment [5] (cell material: Jurkat lysate). In addition, the pIC50 in [5] (cell material: Lysate mix), in [6] (cell material: Jurkat cells), in experiment [6] (cell material: Jurkat lysate), in experiment [6] (cell material: Lysate mix), in experiment [7] (cell material: Jurkat cells) and in experiment [7] (cell material: Jurkat lysate) was below 4.52 throughout. Moreover, the negative-log IC50 (pIC50) in [7] (cell material: Lysate mix) was below 4.52; in [8] (cell material: Jurkat cells), below 4.52; in experiment [8] (cell material: Jurkat lysate), below 4.52; in experiment [8] (cell material: Lysate mix) it was below 4.52; in experiment [9] (cell material: Jurkat cells) it was 5.96; in experiment [9] (cell material: Jurkat lysate), below 4.52. Moreover, the pIC50 in experiment [9] (cell material: Lysate mix), in experiment [10] (cell material: Jurkat cells), in experiment [10] (cell material: Jurkat lysate), in experiment [10] (cell material: Lysate mix), in [11] (cell material: Jurkat lysate) and in [11] (cell material: Lysate mix) was below 4.52 each time.
Consider `CCNC(=O)c1cc(Nc2cc(C)[nH]n2)nc(N2CCN(Cc3ccc(S(=O)(=O)F)cc3)CC2)n1`, for which the negative-log IC50 (pIC50) in experiment [1] (cell material: Lysate mix) is 6.47; in experiment [2] it was 5.78; in experiment [3] (cell material: Lysate mix), below 4.52; in experiment [4] (cell material: Lysate mix), 5.89; in experiment [5] (cell material: Lysate mix), below 4.52; in [6] (cell material: Lysate mix) it was below 4.52. Further, the pIC50 in experiment [7] (cell material: Lysate mix), in experiment [8] (cell material: Lysate mix), in experiment [9] (cell material: Lysate mix), in [10] (cell material: Lysate mix) and in [11] (cell material: Lysate mix) was below 4.52 in each case.
